{
  "source": "patent US20220128542A1",
  "about": "“TREATMENT EFFICIENCY EVALUATION” (TX MEDIC AB, priority 2019, published 2022)",
  "test_system": "Human Schwann cells",
  "assay": "Gene expression array and pathway/upstream regulator analysis in Schwann cells (Example 2)",
  "assay_type": "cell-based",
  "details": "0.01 mg/ml",
  "experimental": "For each cell line, n=8×25 cm^2 culture flasks were set up. Two flasks were harvested for each cell type on the day of treatment (24 hours after seeding). This represents the Day0 time point. From the remaining flasks, three flasks were treated with Control Medium and three were treated with Culture Medium (CM) containing LMW-DS to give a final concentration of 0.01 mg/ml. Cells from the treated flasks were collected after 48 hours. Therefore the collected data represent (a) untreated cells (Day0 Controls and Day2 Controls) and (b) cells treated with LMW-DS for 48 hours (Day2 LMW-DS treated).\n25 cm^2 flasks were coated by adding 2 ml per flask of a solution of 50 μg/ml poly-d-lysine in Hank's balanced salt solution (HBSS) and incubating overnight at 37° C. in the dark. Flasks were washed with cell culture water and air-dried for 30 min in the dark. Flasks were coated by adding 1 ml per flask of a solution of 25 μg/ml laminin in phosphate-buffered saline (PBS) and incubating for 2 hour at 37° C. in the dark. The laminin flasks were washed with PBS three times before plating cells.\nSchwann cells growth medium was prepared by adding 10% of fetal bovine serum (FBS) to high-glucose DMEM and pre-warmed to 37° C. Cells were thawed in a 37° C. water bath for no longer than 2 min.\nCells from 12 vials were each gently transferred to a tube containing 10 ml of high-glucose DMEM medium and centrifuged at 400 relative centrifugal field (RCF) for 10 min. Pellet was re-suspended in culture medium. The cells from the 12 vials were mixed and distributed equally into the previously coated 25 cm^2 flasks (n=8). Cells were incubated at 37° C. with 5% CO2. Cells were allowed to settle for 24 hours before LMW-DS treatment.\nA fresh 100× LMW-DS stock (1.0 mg/ml) was prepared in sterile DMEM-F12. The concentrated drug stock was sterile filtered and added to the respective culture media (19.6 ml CM and 0.4 ml LMW-DS stock solution). The Control was made using 19.6 ml CM and 0.4 ml of DMEM-F12. LMW-DS and CM were added to the respective flasks (5 ml each) to reach the 0.01 mg/ml concentration of LMW-DS in each dish with a total of 10 ml CM each.\nCM was aspirated into a clean and labelled 15 ml Falcon tube. The flasks (without culture medium) were placed into the −80° C. freezer for 30 minutes. The CM in the Falcon tubes was spun at 3000×g for 5 minutes. Supernatant was removed and the small pellet was re-suspended in 2.5 ml Trizol:Water (4:1) solution at room temperature (RT, ˜22° C.).\nThe frozen flasks were removed one-by one from the freezer and the Trizol-Water from the appropriate tubes was moved to the flask. Flasks were left at RT for 5 minutes before the content was aspirated back into the 15 ml Falcon tube (after washing the bottom of the flask with the solution thoroughly). The flasks were inspected under the microscope to ensure full removal of cells. The collected lysates in the 15 ml Falcon tubes were placed into the −80° C. freezer.\nFalcon tubes containing the homogenates were removed from the freezer and stored for 5 minutes at RT to permit the complete dissociation of nucleoprotein complexes.\nTwo aliquots of 1 ml lysate were removed from each sample and 200 μl of chloroform was added to each (0.2 ml of chloroform per 1 ml of TRIzol Reagent used during the cell lysis step) and the tube was shaken vigorously. Samples were stored at RT for 2-3 minutes and subsequently centrifuged at 12,000×g for 15 minutes at 4° C.\nThe mixture separated into three layers: a lower red phenol-chloroform phase, an interphase and a colorless upper aqueous phase. The RNA remained in the top aqueous phase, DNA in the white middle (interphase) phase and protein in the pink bottom (organic) phase. The top ¾ of the aqueous phase was transferred to a new clean Eppendorf tube.\nThe RNA was precipitated from the aqueous phase by adding an equal amount of 100% ethanol. The precipitated RNA was fixed onto a Spin Cartridge, washed twice and dried. […]",
  "data": [
    {"substance": "sodium salt of dextran sulfate [LMW-DS]", "values": [
      {"measurement": "number of genes: no effect / abolished nutrient effect", "setting": "48 hours", "result": 21},
      {"measurement": "number of genes: no effect / total", "setting": "48 hours", "result": 21},
      {"measurement": "number of genes: significant downregulation / abolished nutrient effect", "setting": "48 hours", "result": 1},
      {"measurement": "number of genes: significant downregulation / enhanced response to nutrients", "setting": "48 hours", "result": 122},
      {"measurement": "number of genes: significant downregulation / new effect induced by LMW-DS", "setting": "48 hours", "result": 352},
      {"measurement": "number of genes: significant downregulation / not different from control", "setting": "48 hours", "result": 42},
      {"measurement": "number of genes: significant downregulation / total", "setting": "48 hours", "result": 517},
      {"measurement": "number of genes: significant upregulation / abolished nutrient effect", "setting": "48 hours", "result": 13},
      {"measurement": "number of genes: significant upregulation / enhanced response to nutrients", "setting": "48 hours", "result": 441},
      {"measurement": "number of genes: significant upregulation / new effect induced by LMW-DS", "setting": "48 hours", "result": 74},
      {"measurement": "number of genes: significant upregulation / not different from control", "setting": "48 hours", "result": 373},
      {"measurement": "number of genes: significant upregulation / total", "setting": "48 hours", "result": 901},
      {"measurement": "number of genes: total / abolished nutrient effect", "setting": "48 hours", "result": 35},
      {"measurement": "number of genes: total / enhanced response to nutrients", "setting": "48 hours", "result": 563},
      {"measurement": "number of genes: total / new effect induced by LMW-DS", "setting": "48 hours", "result": 426},
      {"measurement": "number of genes: total / not different from control", "setting": "48 hours", "result": 415},
      {"measurement": "number of genes: total / total", "setting": "48 hours", "result": 1439},
      {"measurement": "differentially expressed genes", "setting": "D0 control vs D2 LMW-DS treated", "result": 1244, "unit": "genes"},
      {"measurement": "differentially expressed genes", "setting": "D2 control vs D2 LMW-DS treated", "result": 700, "unit": "genes"}
    ]}
  ]
}
